This data set can be described thus: Water-solubility of the phthalocyanine compound. The format is physicochemical. The conditions noted are these: at the ordinary temperature. The protocol:
300 parts of wet cake containing 53.6 parts of tetramino copper phthalocyanine (0.085 mol) were suspended in 360 parts of water in a four-neck flask equipped with a condenser, followed by heating to 60° C. with stirring, dropping 9.5 parts of acetic anhydride (0.093 mol) at the same temperature and stirring at the same temperature for 5 hours. Successively 0.2 parts of hydroquinone and 95.4 parts of acrylic acid […] were added, followed by heating to 80° C. and stirring with keeping the same temperature for 12 hours. Judging from the reaction, mixture of several compounds though it is, the reaction product is found to correspond to a compound which comprises tetramino phthalocyanine having on average one introduced acyl group (acetylamino) and three introduced carboxyethyl per molecule, namely the desired monoacetylamino(2-tricarboxyethylamino) copper phthalocyanine.

Consider “monoacetylamino(2-tricarboxyethylamino) copper phthalocyanine [Example 5]”, for which the water-solubility entry is listed as “about 10 % by mass”.

These data come from patent US7018456B2, “Phthalocyanine compound, water-base ink composition and colored material” (Nippon Kayaku Kabushiki Kaisha, priority 2002, dated 2006).
